Experimental findings from ChEMBL document CHEMBL2331407, “Mexican antidiabetic herbs: valuable sources of inhibitors of α-glucosidases” (J Nat Prod, 2013) are described below.

The structures appear in SMILES notation. ≈ marks a conversion by molar mass, not a printed value.

Assay [1] concerns the target T1, Alpha-glucosidase MAL12 (Saccharomyces cerevisiae S288c, UniProt P53341). Description: (§1) Inhibition of baker's yeast alpha-glucosidase.
The target of assay [2] is Oligo-1,6-glucosidase IMA1 (Saccharomyces cerevisiae S288c) (UniProt P53051). Described as §1.
Assay [3] deals with alpha-glucosidase (Mus musculus). As to the kind of experiment: Inhibition of alpha-glucosidase from mouse intestine crude homogenate.
In assay [4] the test system is alpha-glucosidase (Rattus norvegicus). Description: Inhibition of rat intestinal alpha-glucosidase. Further details: concentration or dose not given beside the values. The following applies: concentration not given here.
Assay [5] can be described thus: Inhibition of rat intestinal alpha-glucosidase.
For the next assay, the species on record is Rattus norvegicus. As to the kind of experiment: Gastroprotective activity in rat assessed as protection against ethanol-induced gastric injury. In kind it is functional, Stomach. The conditions noted are these: for ED50: Rattus norvegicus, Stomach.
Assay [6] concerns the target T1, Alpha-glucosidase MAL12. As to the kind of experiment: Mixed type inhibition of baker's yeast alpha-glucosidase by Dixon plot analysis.

Oligo-1,6-glucosidase IMA1 (Saccharomyces cerevisiae S288c), sequence (P53051 whole entry): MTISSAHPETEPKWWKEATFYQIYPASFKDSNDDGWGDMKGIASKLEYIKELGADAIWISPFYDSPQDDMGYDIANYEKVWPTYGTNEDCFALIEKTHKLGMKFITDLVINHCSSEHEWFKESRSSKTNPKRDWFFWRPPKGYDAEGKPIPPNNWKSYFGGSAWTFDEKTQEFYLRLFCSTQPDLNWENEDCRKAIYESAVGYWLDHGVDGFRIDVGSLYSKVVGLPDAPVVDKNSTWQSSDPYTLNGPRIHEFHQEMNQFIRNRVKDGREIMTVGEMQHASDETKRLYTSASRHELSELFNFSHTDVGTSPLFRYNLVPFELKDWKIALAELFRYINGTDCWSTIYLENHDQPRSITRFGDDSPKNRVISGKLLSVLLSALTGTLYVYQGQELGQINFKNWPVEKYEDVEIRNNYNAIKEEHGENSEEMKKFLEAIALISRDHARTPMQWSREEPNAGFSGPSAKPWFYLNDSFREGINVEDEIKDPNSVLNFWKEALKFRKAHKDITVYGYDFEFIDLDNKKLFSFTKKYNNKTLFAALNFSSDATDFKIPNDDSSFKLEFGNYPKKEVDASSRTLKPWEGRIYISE
T1 sequence (P53341 whole entry): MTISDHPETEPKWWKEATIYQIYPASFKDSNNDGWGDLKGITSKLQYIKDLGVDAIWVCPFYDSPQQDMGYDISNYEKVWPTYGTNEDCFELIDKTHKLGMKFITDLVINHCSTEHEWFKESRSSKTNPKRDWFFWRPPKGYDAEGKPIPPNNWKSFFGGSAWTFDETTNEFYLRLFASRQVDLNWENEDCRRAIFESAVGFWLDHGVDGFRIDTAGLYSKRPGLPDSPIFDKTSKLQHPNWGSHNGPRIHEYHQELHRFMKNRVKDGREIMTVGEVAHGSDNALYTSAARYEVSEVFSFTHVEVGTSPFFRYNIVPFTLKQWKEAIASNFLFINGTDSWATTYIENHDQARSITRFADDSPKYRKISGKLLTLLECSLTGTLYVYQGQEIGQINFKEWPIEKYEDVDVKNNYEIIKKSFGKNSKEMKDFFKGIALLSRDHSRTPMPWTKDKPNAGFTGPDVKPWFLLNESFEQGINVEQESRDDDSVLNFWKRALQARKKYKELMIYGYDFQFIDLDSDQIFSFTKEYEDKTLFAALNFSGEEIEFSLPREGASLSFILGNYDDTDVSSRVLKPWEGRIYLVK

For the compound `COc1cc(O)c2c(-c3ccc(O)c(O)c3)cc(=O)oc2c1`, the IC50 against Alpha-glucosidase MAL12 [1] worked out at 62 µM. In addition, the inhibition result in assay [2] is “Dose-dependent effect”.
In turn, `CC(C)=CC(=O)O[C@H]1C[C@@H](O)[C@@]2(C)CO[C@H]3[C@@H](O)[C@@]4(C)C5=CC[C@@H](c6ccoc6)[C@]5(C)CC[C@@H]4[C@]1(C)[C@@H]32` [MELIACINOLIN] yielded an IC50 in assay [3] of 32.18 µg/mL (≈ 63 µM).
As to `C[C@H](C/C=C/C(C)(C)O)[C@H]1CC[C@@]2(C)[C@@H]3C=C[C@@]45OC[C@]3(CC[C@]12C)[C@@H]4CC[C@H](O[C@@H]1O[C@H](CO)[C@@H](O)[C@@H](O)[C@H]1O)C5(C)C`, the inhibition in assay [4] stood at 12.5%.
`COc1cc(/C=C/C(=O)OC[C@H]2O[C@@H](O[C@H]3[C@H](Oc4cc5c(O[C@@H]6O[C@H](CO)[C@@H](O)[C@H](O)[C@H]6O)cc(O)cc5[o+]c4-c4ccc(O)c(OC)c4)O[C@H](COC(=O)/C=C/c4ccc(O)c(O)c4)[C@@H](O)[C@@H]3O)[C@H](O)[C@@H](O)[C@@H]2O)ccc1O` returned an IC50 in assay [5] of 200 µM.
Take `COC(C)(C)/C=C/C[C@@H](C)[C@H]1CC[C@@]2(C)[C@@H]3C=C[C@@]45OC[C@]3(CC[C@]12C)[C@@H]4CC[C@H](O[C@@H]1O[C@H](CO)[C@@H](O)[C@H](O)[C@H]1O)C5(C)C`: the inhibition in assay [4] turned out to be 11.5%.
In the case of `O=C(/C=C/c1ccc(O)c(O)c1)O[C@@H]1C[C@](O)(C(=O)O)C[C@@H](O)[C@H]1O` [CHLOROGENIC ACID], in the assay filed under Rattus norvegicus, the Activity turned out to be 74.04% and the ED50 stood at 26 mg/kg.
In turn, `O=c1cc(-c2ccc(O)c(O)c2)c2c(O)cc(O)cc2o1` showed an IC50 on Alpha-glucosidase MAL12 [1] of 208 µM. For the same compound, the inhibition entry in assay [2] is “Dose-dependent effect”.
Turning to `COc1cc(O[C@@H]2O[C@H](CO[C@@H]3OC[C@](O)(CO)[C@H]3O)[C@@H](O)[C@H](O)[C@H]2O)c2c(-c3ccc(O)c(O)c3)cc(=O)oc2c1`, in the assay listed under Rattus norvegicus, the Activity is on record as 68.85% and the ED50 turned out to be 15 mg/kg.
With `COc1cc(-c2oc3cc(O)cc(O)c3c(=O)c2O)ccc1O` [ISORHAMNETIN], at Alpha-glucosidase MAL12 [1], the IC50 stood at 160 µM.
Turning to `CC(C)=C[C@H](O[C@@H]1O[C@H](CO)[C@@H](O)[C@@H](O)[C@H]1O)[C@@H](O)[C@@H](C)[C@H]1CC[C@@]2(C)[C@@H]3C=C[C@@]45OC[C@]3(CC[C@]12C)[C@@H]4CC[C@H](O[C@@H]1O[C@H](CO)[C@@H](O)[C@H](O)[C@H]1O)C5(C)C`, the inhibition in assay [4] was 18.6%.
As for `C[C@H](C/C=C/C(C)(C)O)[C@H]1CC[C@@]2(C)[C@@H]3C=C[C@@]45OC[C@]3(CC[C@]12C)[C@@H]4CC[C@H](O[C@@H]1O[C@H](CO)[C@@H](O)[C@H](O)[C@H]1O)C5(C)C`, the inhibition in assay [4] amounted to 10.1%.
Same read-out and setting: next, `C[C@H]([C@H](O)[C@@H](O)[C@@H](O)C(C)(C)O)[C@H]1CC[C@@]2(C)[C@@H]3CC=C4[C@@H](CC[C@H](O[C@@H]5O[C@H](CO[C@@H]6O[C@H](CO)[C@@H](O)[C@H](O)[C@H]6O)[C@@H](O)[C@H](O)[C@H]5O)C4(C)C)[C@]3(C)CC[C@]12C`: 21.7%; `CO[C@H]1C=C2[C@@H](CC[C@H](O[C@@H]3O[C@H](CO)[C@@H](O)[C@@H](O)[C@H]3O)C2(C)C)[C@]2(C)CC[C@]3(C)[C@@H]([C@H](C)C/C=C/C(C)(C)O)CC[C@@]3(C)[C@H]12`: 15.8%.
For the compound `C=C1C(=O)O[C@@H]2C[C@@H](C)/C=C\C(=O)[C@](C)(O)[C@H](OC(C)=O)[C@@H](OC(=O)/C(C)=C/C)[C@@H]12` [CALEIN C], inhibition against Alpha-glucosidase MAL12 [1] was half-maximal at 280 µM (IC50).
With `C[C@H](CC(O)C(O)C(C)(C)O)[C@H]1CC[C@@]2(C)[C@@H]3CC=C4[C@@H](CC[C@H](O[C@@H]5O[C@H](CO[C@@H]6O[C@H](CO)[C@@H](O)[C@H](O)[C@H]6O)[C@@H](O)[C@H](O)[C@H]5O)C4(C)C)[C@]3(C)CC[C@]12C` (stereo partly specified), the inhibition in assay [4] was 13%.
As for `COc1cc(/C=C/C(=O)OC[C@H]2O[C@@H](O[C@H]3[C@H](Oc4cc5c(O[C@@H]6O[C@H](CO)[C@@H](O)[C@H](O)[C@H]6O)cc(O)cc5[o+]c4-c4ccc(O)c(O)c4)O[C@H](COC(=O)/C=C/c4ccc(O)c(O)c4)[C@@H](O)[C@@H]3O)[C@H](O)[C@@H](O)[C@@H]2O)ccc1O`, half-maximal inhibition in assay [5] (IC50) required 193 µM.
As for `CO[C@@H]1O[C@]23C=C[C@@H]4[C@@]1(CC[C@]1(C)[C@@H]([C@H](C)C/C=C/C(C)(C)O)CC[C@@]41C)[C@@H]2CC[C@H](O[C@@H]1O[C@H](CO)[C@@H](O)[C@H](O)[C@H]1O)C3(C)C`, the inhibition in assay [4] amounted to 10.9%.
`CC1(C)C=Cc2c(ccc(C(=O)CO)c2O)O1` displayed an IC50 against Alpha-glucosidase MAL12 [1] of 420 µM.
As to `CCCC=C1OC(=O)c2ccccc21` [(E)-BUTYLIDENEPHTHALIDE], the midpoint of inhibition at Alpha-glucosidase MAL12 [1], the IC50, lay at 2350 µM. In addition, the inhibition entry in assay [2] is “Dose-dependent effect”. At Alpha-glucosidase MAL12 [6], this compound returned a Ki of 4.86 µM.
`COC(C)(C)/C=C/C[C@@H](C)[C@H]1CC[C@@]2(C)[C@@H]3CC[C@@]45OC(=O)[C@]3(CC[C@]12C)[C@@H]4CC[C@H](O[C@@H]1O[C@H](CO)[C@@H](O)[C@@H](O)[C@H]1O)C5(C)C` gave an inhibition in assay [4] of 13.6%.
